Read-outs that look alike come from different tables or passages of the source.
Key:
[1] = test system: HCT-116 (colon cancer); test: MTT cell viability assay, HCT-116; format: cell-based, human; conditions: 72 h of incubation, mean ± SD
Description: (§1) All chemicals, if not stated otherwise, were obtained from Sigma-Aldrich (St. Louis, MO, USA). The MCF-7 cell line was purchased from Cell Lines Services (Eppelheim, Germany), the HeLa and HCT-116 cell lines were obtained from the Department of Microbiology, Tumor and Cell Biology, Karolinska Institute (Stockholm, Sweden). Cells were cultured in Dulbecco’s modified Eagle’s medium (DMEM) supplemented with 10% fetal bovine serum, 2 mM glutamine, 100 units/mL penicillin, and 100 μg/mL streptomycin. Cultures were maintained in a humidified atmosphere with 5% CO2 at 37 °C in an incubator (HeraCell, Heraeus, Langenselbold, Germany).
(§2) Cell viability was determined using the MTT (3-(4,5-dimethylthiazol-2-yl)-2,5-diphenyl-tetrazoliumbromide) assay. Stock solutions of the studied compounds were prepared in 100% DMSO. […] Cells were seeded in 96-well plates at a density of 5 × 10^3 cells/well and treated for 72 h with the examined compounds in the concentration range 1–100 μM (1, 10, 25, 50 and 100 μM). Following treatment, MTT (0.5 mg/mL) was added to the medium and cells were further incubated for 2 h at 37 °C. Cells were lysed with DMSO and the absorbance of the formazan solution was measured at 550 nm with a plate reader (1420 multilabel counter, Victor, Jügesheim, Germany). […] The experiment was performed in triplicate. Values are expressed as the mean ± SD of at least three independent experiments.

[2] = test system: HeLa (cervical cancer); test: MTT cell viability assay, HeLa; format: cell-based, human; conditions: for IC50: 72 h of incubation, mean ± SD
Description: as §1, §2

[3] = test system: MCF-7 (breast cancer); test: MTT cell viability assay, MCF-7; format: cell-based, human; conditions: Homo sapiens, MCF7, 72 h of incubation, mean ± SD
Description: as §1, §2

[4] = test system: HCT-116, HeLa and MCF-7; test: MTT cell viability assay, all tested cell lines together; format: cell-based; conditions: Homo sapiens; average over HCT-116, HeLa and MCF-7; read-out: average IC50 against all tested cell lines
Description: as §1, §2

[5] = Metabolic stability with human liver microsomes and NADPH; format: in vitro ADME; conditions: liver microsomes
Description: Stock solutions of studied compounds were prepared at concentration of 10 mM in DMSO. […] Incubation mixture contained 10 μM of a studied derivative, 1 mM of NADPH (Sigma-Aldrich) and 0.5 mg/mL of human liver microsomes (HLM, Sigma-Aldrich) in potassium phosphate buffer (0.1 M, pH 7.4). Incubation was carried out in thermostat at 37 °C and started by addition of studied compound. 50 μL samples were taken after 5, 15, 30, 45 and 60 min. Enzymatic reaction was terminated by the addition of the equal volume of ice-cold acetonitrile containing 10 μM of alprazolam (Sigma-Aldrich) serving as internal standard (IS). Control incubations were performed without NADPH to assess chemical instability. After collection, samples were immediately centrifuged (10 min, 10,000 rpm) and resulted supernatant was directly analyzed or kept in −80 °C until LC-MS analysis. Natural logarithm of a compound over IS peak area ratio was plotted versus incubation time. Metabolic half-time (t1/2) was calculated from the slope of the linear regression, as reported in [48].
LC-MS analysis was performed on an Agilent 1260 system coupled to SingleQuad 6120 mass spectrometer (Agilent Technologies, Santa Clara, CA, USA). Ascentis Express ES-CN (2.1 mm × 100 mm, 2.7 μm, Supelco Analytical, Bellefonte, PA, USA) was used in reversed-phase mode with gradient elution starting with 50% of phase A (10 mM ammonium formate in water) and 50% of phase B (10 mM ammonium formate in acetonitrile-water mixture, 95:5 v/v). […] Total analysis time was 10 min at 25 °C, flow rate was 0.4 mL/min and the injection volume was 20 μL. The mass spectrometer was equipped with electrospray ion source and operated in positive ionization. Mass analyzer was set individually to each compound to detect [M + H]^+ pseudomolecular ions. MSD parameters of the ESI source were as follows: nebulizer pressure 50 psig (N2), drying gas […] (N2), drying gas temperature 300 °C, capillary voltage 3.5 kV, fragmentor voltage 100 V.

[6] = test system: MCF-7; test: Cell cycle analysis (sub-G1, DAPI flow cytometry), MCF-7; format: cell-based, human; conditions: MCF-7, 24 h, mean ± SD
Description: One of the most common mechanisms in anticancer drug treatment is changes in cell cycle, which can be measured by DNA content. Cell cycle distribution in HCT-116, HeLa and MCF-7 cells was examined to determine cycle arrest and/or presence of sub-G1 after treatment with compounds 37 and 46. […] Cell populations data are expressed as the mean ± SD of at least three independent experiments.
Following treatment, cells were fixed in cold 70% ethanol for 30 min. Fixed cells were stained for 15 min in buffer containing 500 μg/mL RNAse A (EURx, Gdansk, Poland) and 2.5 μg/mL of DAPI (Sigma-Aldrich, Munich, Germany). The fluorescence of DAPI was measured at 440 ± 40 nm with a flow cytometer (LSR II, BD Biosciences, Mountain View, CA, USA). Each experiment was performed at least in triplicate. Data were analyzed off-line using the BD FACSDiva (BD Biosciences).

[7] = test system: MCF-7; test: Mitochondrial membrane potential (JC-1), MCF-7; format: cell-based, human; conditions: MCF-7, 24 h, low and moderate concentrations
Description: Loss of the mitochondrial membrane potential (Δψm) is one of the earliest indicators of an apoptosis. It can be detected using fluorescent dye JC-1 (5,5′,6,6′-tetrachloro-1,1′,3,3′-tetraethylbenzimidazolylcarbocyanine iodide) exited with blue laser. JC-1 spontaneously forms dimer complexes (J aggregates) with red fluorescent or remain as a monomers with green fluorescence in cells with high and low Δψm, respectively.
Half an hour before the end of 24 h-treatment 2.5 μg/mL of JC-1 (5,5′,6,6′-tetrachloro-1,1′,3,3′-tetraethylbenzimidazolylcarbocyanine iodide) was added to the cell medium. As a negative control 100 μM CCCP (carbonyl cyanide 3-chlorophenylhydrazone) was used 15 min before JC-1 treatment. Following treatment cells were twice washed with PBS and analyzed with flow cytometer (LSR II, BD Biosciences).
Green and red fluorescence were observed using FL-1 (530 ± 30 nm) and FL-2 (585 ± 42 nm) channels, respectively. Percentage of cell population in red or green fluorescence gate indicated the level of Δψm. Decreasing red fluorescence cell population indicated lower Δψm.

[8] = test system: HeLa as well as HCT-116 cells; test: MTT cell viability assay, HeLa and HCT-116; format: cell-based, human; conditions: summary over the two cell lines; for IC50: Homo sapiens, read-out: IC50 toward HeLa as well as HCT-116
Description: as §1, §2

[9] = pH 7.4, human liver microsomes 0.5 mg/mL, 1 mM NADPH, 10 μM compound, pH 7.4, 37 °C, up to 60 min, read-out: In Vitro Metabolic Half-Life t1/2
[10] = pH 7.4, value in parentheses beside >60, beyond the 60 min incubation, human liver microsomes, NADPH, read-out: In Vitro Metabolic Half-Life t1/2 (min), value in parentheses

| IC50 ([1]; Homo sapiens, HCT-116, 72 h) [µM] | IC50 ([2]; Homo sapiens, 72 h) [µM] | IC50 [3] [µM] | IC50 [4] [µM] | half-life at 10 μM [5, 9] [min] | half-life at 10 μM [5, 10] [min] | IC50 [8] [µM] | melting point [°C] | IC50 toward HeLa as well as HCT-116 [8] | IC50 [1] [µM] | IC50 [2] [µM] | SMILES | Sub-G1 cell population [6] | effect on mitochondrial membrane potential (Δψm) [7] | viability at 100 µM ([2]; Homo sapiens, HeLa, 72 h, 100 μM, read-out: Viability of cell line at 100 μM (HeLa)) [%] |
| --- | --- | --- | --- | --- | --- | --- | --- | --- | --- | --- | --- | --- | --- | --- |
| 64 ± 1 | 80 ± 2 | 59 ± 2 | < 71 | > 60 | 78.1 |  |  |  |  |  | O=C(Nc1ccc(Cl)cc1)c1cc(S(=O)(=O)Nc2nncc(-c3ccc(C(F)(F)F)cc3)n2)c(SCc2ccccc2)cc1Cl [Compound 46, 4-Benzylthio-2-chloro-N-(4-chlorophenyl)-5-{N-[5-(4-trifluoromethylphenyl)-1,2,4-triazin-3-yl]sulfamoyl}-benzamide] | 20% ± 5.6% | remarkably decreased Δψm |  |
| 70 ± 2 |  | 69 ± 1 |  | 26.5 |  |  |  |  |  |  | Cc1ccc(NC(=O)c2cc(S(=O)(=O)Nc3nncc(-c4ccc(C(F)(F)F)cc4)n3)c(SCc3ccccc3)cc2Cl)cc1 [Compound 52, 4-Benzylthio-2-chloro-N-(4-methylphenyl)-5-{N-[5-(4-trifluoromethylphenyl)-1,2,4-triazin-3-yl]sulfamoyl}-benzamide] |  |  | 100 |
| 75 ± 5 | 79 ± 1 | 78 ± 3 |  | 17.5 |  |  |  |  |  |  | COc1ccc(-c2cnnc(NS(=O)(=O)c3cc(C(=O)Nc4ccc(Cl)cc4)c(Cl)cc3SCc3ccccc3)n2)cc1 [Compound 47, 4-Benzylthio-2-chloro-N-(4-chlorophenyl)-5-{N-[5-(4-methoxyphenyl)-1,2,4-triazin-3-yl]sulfamoyl}benzamide] |  |  |  |
| 68 ± 3 | 69 ± 1 | 78 ± 2 | < 71 | 42.4 |  |  |  |  |  |  | COc1ccc(-c2cnnc(NS(=O)(=O)c3cc(C)c(Cl)cc3SCc3ccc(C(F)(F)F)cc3)n2)cc1 [Compound 35, 4-Chloro-N-[5-(4-methoxyphenyl)-1,2,4-triazin-3-yl]-5-methyl-2-[4-(trifluoromethyl)benzylthio]benzene-sulfonamide] |  |  |  |
| 200 ± 4 | 100 ± 6 | 120 ± 5 |  |  |  |  |  | loss of activity |  |  | Cc1cc(S(=O)(=O)Nc2nncc(-c3ccc(C(F)(F)F)cc3)n2)c(SCc2ccccc2)cc1Cl [Compound 28, 2-Benzylthio-4-chloro-5-methyl-N-[5-(4-trifluoromethylphenyl)-1,2,4-triazin-3-yl]benzenesulfonamide] |  |  |  |

The next lines start with the compound.

| SMILES | IC50 ([1]; Homo sapiens, HCT-116, 72 h) [µM] | IC50 ([2]; Homo sapiens, 72 h) [µM] | IC50 [3] [µM] | IC50 [4] [µM] | half-life at 10 μM [5, 9] [min] | half-life at 10 μM [5, 10] [min] | IC50 [8] [µM] | melting point [°C] | IC50 toward HeLa as well as HCT-116 [8] | IC50 [1] [µM] | IC50 [2] [µM] | Sub-G1 cell population [6] | effect on mitochondrial membrane potential (Δψm) [7] | viability at 100 µM ([2]; Homo sapiens, HeLa, 72 h, 100 μM, read-out: Viability of cell line at 100 μM (HeLa)) [%] |
| --- | --- | --- | --- | --- | --- | --- | --- | --- | --- | --- | --- | --- | --- | --- |
| Cc1cc(S(=O)(=O)Nc2nncc(-c3cccc(F)c3)n2)c(SCc2cccc3ccccc23)cc1Cl [Compound 36, 4-Chloro-N-[5-(3-fluorophenyl)-1,2,4-triazin-3-yl]-5-methyl-2-[(naphthalene-1-yl)methylthio]benzene-sulfonamide] | 49 ± 2 | 55 ± 2 | 96 ± 4 | < 71 | 13.9 |  |  |  |  |  |  |  |  |  |
| COc1cccc(-c2cnnc(NS(=O)(=O)c3cc(C)c(Cl)cc3SCc3ccccc3)n2)c1 [Compound 30, 2-Benzylthio-4-chloro-N-[5-(3-methoxyphenyl)-1,2,4-triazin-3-yl]5-methylbenzenesulfonamide] | 85 ± 2 | 90 ± 4 | 67 ± 1 |  | 24.9 |  |  |  |  |  |  |  |  |  |
| Cc1cc(S(=O)(=O)Nc2nncc(-c3ccc(C(F)(F)F)cc3)n2)c(SCc2c(C)noc2C)cc1Cl [Compound 40, 4-Chloro-2-[(3,5-dimethylizoxazol-4-yl)methylthio]-5-methyl-N-[5-(4-trifluoromethylphenyl)-1,2,4-triazin-3-yl]benzenesulfonamide] | 77 ± 1 | 85 ± 2 | 98 ± 3 |  |  |  | 51 to 85 |  |  |  |  |  |  |  |
| Cc1cc(S(=O)(=O)Nc2nncc(-c3cccc(F)c3)n2)c(SCc2c(C)noc2C)cc1Cl [Compound 39, 4-Chloro-2-[(3,5-dimethylizoxazol-4-yl)methylthio]-N-[5-(3-fluorophenyl)-1,2,4-triazin-3-yl]-5-methyl-benzenesulfonamide] | 83 ± 2 | 93 ± 1 | 95 ± 3 |  |  |  |  | 208 to 211 |  |  |  |  |  |  |
| Cc1cc(S(=O)(=O)Nc2nncc(-c3ccc(C(F)(F)F)cc3)n2)c(SCc2ccc(C(F)(F)F)cc2)cc1Cl [Compound 34, 4-Chloro-5-methyl-2-[4-(trifluoromethyl)benzylthio]-N-[5-(4-trifluoromethylphenyl)-1,2,4-triazin-3-yl]-benzenesulfonamide] | 51 ± 1 | 73 ± 1 | 68 ± 3 | < 71 | > 60 | 154 | 51 to 85 |  |  |  |  |  |  |  |
| COc1ccc(-c2cnnc(NS(=O)(=O)c3cc(C)c(Cl)cc3SCc3ccccc3)n2)cc1OC [Compound 31, 2-Benzylthio-4-chloro-N-[5-(3,4-dimethoxyphenyl)-1,2,4-triazin-3-yl]-5-methylbenzenesulfonamide] | 140 ± 7 | 150 ± 6 | 77 ± 2 |  | 17.6 |  |  |  |  |  |  |  |  |  |
| COc1ccc(-c2cnnc(NS(=O)(=O)c3cc(C)c(Cl)cc3SCc3cccc4ccccc34)n2)cc1 [Compound 38, 4-Chloro-N-[5-(4-methoxyphenyl)-1,2,4-triazin-3-yl]-5-methyl-2-[(naphthalene-1-yl)methylthio]benzene-sulfonamide] | 36 to 38 | 34 to 42 | 69 ± 1 | 50 | < 5 |  |  |  |  | 38 ± 2 | 42 ± 1 |  |  |  |

Source: publication PMC6273912, “Novel 5-Substituted 2-(Aylmethylthio)-4-chloro-N-(5-aryl-1,2,4-triazin-3-yl)benzenesulfonamides: Synthesis, Molecular Structure, Anticancer Activity, Apoptosis-Inducing Activity and Metabolic Stability” (Molecules, 2016)
